We go through three compounds from paper PMC5826917, “A small molecule inhibitor of Nicotinamide N-methyltransferase for the treatment of metabolic disorders” (Scientific Reports, 2018).

In one data set the test system is mice on a high-fat diet. Also on record: method as in PMID 29155147. Conditions: treatment period of 12 days; cited from earlier work.
For another data set, the target named is T1, NNMT (Homo sapiens, UniProt P40261).
T1 sequence (P40261 1-264): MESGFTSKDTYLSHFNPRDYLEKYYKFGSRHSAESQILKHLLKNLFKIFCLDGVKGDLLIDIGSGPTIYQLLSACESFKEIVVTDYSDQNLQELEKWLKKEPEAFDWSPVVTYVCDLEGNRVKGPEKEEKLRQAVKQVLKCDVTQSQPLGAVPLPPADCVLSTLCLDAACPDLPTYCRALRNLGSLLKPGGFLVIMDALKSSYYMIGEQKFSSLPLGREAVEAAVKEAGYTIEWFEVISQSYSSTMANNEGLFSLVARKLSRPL
The data set can be described thus: NNMT inhibition by the N-methylated product. In kind it is biochemical.

Data set [1] has as its system db/db mice. Kind of data set: Chronic efficacy study in db/db mice. Conditions: db/db mice. How it is done:
Samples for MNA were analyzed employing a fit-for-purpose LC-MS/MS method. PE-Sciex API-4000 triple quadrupole (PerkinElmerSciex Instruments, Boston, MA) mass spectrometer was employed for this analysis. Samples (5 µL) were injected onto Kinetex HILIC (50 × 4.6 mm, 2.6 µm; Phenomenex, Torrance, CA, USA) column connected to Shimadzu VP (Shimadzu, Japan) LC system. The gradient mobile phase mixture of 0.2% formic acid and acetonitrile was delivered at a flow rate of 0.45 ml min-1 into the mass spectrometer electrospray ionization (ESI) chamber. Quantitation was achieved by MS/MS detection in positive ion mode for MNA and internal standard (d4–MNA). Detection of the ions was performed in the multiple reaction monitoring (MRM) mode, monitoring the transition of the m/z 137 precursor ion to the m/z 92 product ion for MNA and m/z 141 precursor ion to the m/z 84 product ion for d4-MNA (internal standard).
A simple protein precipitation extraction method was followed for extraction of N-methylnicotinamide from plasma and various tissue homogenate samples. The tissue samples were homogenized with 1:3 proportions of phosphate buffer saline (PBS) and this homogenate was used for N-Methylnicotinamide determinations. To an aliquot of ~50 μL of plasma/ liver homogenate/ adipose tissue homogenate samples ~300 µl of acetonitrile containing IS (d4-MNA) solution was added, followed by vortex for ~3 minutes and centrifuged for 10 minutes at 14,000 rpm. The supernatant was separated and transferred to pre-labeled HPLC vials and analyzed by LC-MS/MS system.
Samples for methylated JBSNF-000088 were analyzed employing a fit-for-purpose LC-MS/MS method. PE-Sciex API-5500 triple quadrupole (PerkinElmerSciex Instruments, Boston, MA) mass spectrometer was employed for this analysis. Samples (2 µL) were injected onto Atlantis dC18 (50 × 4.6 mm, 3 µm; Waters, Milford, MA, USA) column connected to Shimadzu VP (Shimadzu, Japan) LC system. The gradient mobile phase mixture of 0.2% formic acid and acetonitrile was delivered at a flow rate of 0.9 mL min-1 into the mass spectrometer electrospray ionization (ESI) chamber. Quantitation was achieved by MS/MS detection in positive ion mode for methylated JBSNF-000088 and internal standard (Tolbutamide). Detection of the ions was performed in the multiple reaction monitoring (MRM) mode, monitoring the transition of the m/z 168 precursor ion to the m/z 128.8, product ion for MNA and m/z 271 precursor ion to the m/z 91 product ion for tolbutamide (internal standard).
Male C57BL6/N (Vivo Bio Tech Ltd, India), ob/ob (B6.V-Lepob/OlaHsd) and its lean control (Envigo laboratories Inc, USA) and db/db (BKS.Cg- + Leprdb/ + Leprdb/OlaHsd) and its lean control (Envigo laboratories Inc, USA) were housed in individually ventilated cages (n = 5/cage) under standard laboratory conditions. The study room environment was maintained at a temperature of 21–24 °C and, relative humidity at 40–70%. The animal rooms were maintained under 12 h light and dark cycle. Animals were provided with ad libitum access to water and food (except where noted otherwise, e.g. during fasting prior for glucose tolerance tests, fasting prior to terminal sacrifice). Animals were acclimatized for 1 week before initiation of studies. For Diet induced obesity (DIO) mice study, C57BL6/N mice were maintained on rodents chow diet (Teklad; Harlan) or HFD (60% Kcal; Research diet) for 14 weeks before study initiation and throughout the study period. ob/ob and db/db mice and their lean controls were maintained on rodents chow diet (Teklad; Harlan). All the experiments were approved by Institutional Animal Ethics Committee (IAEC) of Jubilant Biosys Ltd, India.
Lean control + Vehicle and HFD + Vehicle Control groups (G1 and G2) mice were administered with vehicle.

For data set [2], the system named is db/db mice. Also on record: method as in PMID 12217892, PMID 25256010. The note with it: two weeks of treatment at 100 µg/kg bid; cited from earlier work.

By IC50 is commonly meant the point on the concentration scale where inhibition reaches its midpoint. A low value points to greater potency in that assay. Broadly, the inhibition is the share of the control response that was lost under treatment.

As for `C[n+]1cccc2c(N)cccc21` [5-Amino-1-methylquinoline], the body weight result in the data set with mice on a high-fat diet is “causes weight loss at preserved food intake”.

On to `COc1ccc(C(N)=O)c[n+]1C` [N-methylated product of JBSNF-000088, -carbamoyl-2-methoxy-1-methylpyridin-1-ium trifluoromethanesulfonate], for which the IC50 on NNMT is > 30 µM. In addition, at 30 µM the inhibition on NNMT (at 30 µM) was 20%. Besides, the “detection of methylated compound after oral administration of JBSNF-000088” value in the data set on db/db mice [1] is “could be detected in plasma and adipose tissue”.

Turning to liraglutide, in the data set on db/db mice [2], the “effect on body weight” value is given as “no effect on body weight” and the “influence on glucose homeostasis” value is recorded as “moderate influence on glucose homeostasis”.
